Test results taken from PMC10800876, “Evaluation of proline-rich antimicrobial peptides as potential lead structures for novel antimycotics against Cryptococcus neoformans” (Frontiers in Microbiology, 2024).
In brackets after ≈: the same amount, converted by molar mass. Like-named read-outs stand apart in the source and are kept apart here. Non-standard residues stand in square brackets, D forms with d. Residues, ends and D or L forms follow the SMILES beside them. Ac6c = NC1(C(=O)O)CCCCC1

What was measured:
[1] = test system: C. neoformans strains 1841, H99, and KN99α; experiment: Broth microdilution assay (MIC); assay type: cell-based, Cryptococcus neoformans
[2] = test system: C. neoformans strains 1841, H99, and KN99α; experiment: Antifungal activity assay (CFU); assay type: cell-based, Cryptococcus neoformans; details: only small colonies appearing after more than 24 h
C. neoformans H99 = experiment: Antifungal activity assay (CFU on SAB agar); assay type: cell-based, Cryptococcus neoformans; details: treatment 3 h, 30 °C, mean ± SD, n = 4; for cell count C. neoformans H99, 24 h: CFU counted after 24 h; for cell count C. neoformans H99, 48 h: CFU counted after 48 h
[3] = test system: C. neoformans H99 (serotype A)
C. neoformans 1841 [4] = experiment: Scanning electron microscopy, damaged cells; assay type: cell-based, Cryptococcus neoformans; details: 200 μmol/L, 10^8 CFU/mL, 3 h, 30°C
Procedure: Overnight cultures of C. neoformans 1841 were prepared as described and adjusted with 50% SAB in phosphate buffer to reach 1 × 10^8 CFU/mL. Aqueous peptide solutions (20 μL) were added to the cell suspension (80 μL) to give a final peptide concentration of 200 μmol/L. Samples were incubated at 30°C on an orbital shaker (750 rpm) for 3 h. Samples were centrifuged (2,000 × g, 10 min, 4°C, Microfuge 22R, Beckmann Coulter), cell pellets were washed with ice-cold phosphate-buffered saline (PBS, 100 μL) and centrifuged again. Cell pellets were re-suspended in PBS (25 μL) and adhered overnight in humid atmosphere to glass coverslips (Borosilicate Glass, VWR International GmbH) previously coated with 0.001% poly-L-lysine (in case of Critical-Point Drying). Cells were fixed (2% glutaraldehyde, 2% paraformaldehyde, in PBS) for 60 min and afterwards stained with 1% OsO4 in PBS for 60 min. The cells were gradually dehydrated in ethanol series (30, 50, 70, 85, 90, 96% (once), and 100% (thrice) for 10 min. The coverslips were critical-point-dried (Baltec CPD 030, BAL-TEC GmbH, Schalksmühle, Germany) or air-dried after incubation with HMDS (3 min, RT) and sputter coated with 20 nm gold/palladium (Baltec MED 020, BAL-TEC GmbH). Cells were visualized using the SEM secondary electron detector (Zeiss EVO LS 15 LaB6, Carl Zeiss Microscopy Deutschland GmbH).
GraphPad Prism 10.0.3 software was used for statistical analysis of the recorded data. A Dunnett’s multiple comparisons test (Ordinary-one-way ANOVA) was performed.

C. neoformans KN99α = experiment: Antifungal activity assay (CFU on SAB agar); assay type: cell-based, Cryptococcus neoformans; details: treatment 3 h, 30 °C, mean ± SD, n = 4; for cell count C. neoformans KN99α, 24 h: CFU counted after 24 h; for cell count C. neoformans KN99α, 48 h: CFU counted after 48 h
[5] = test system: C. neoformans 1841 (serotype D)
[6] = test system: C. neoformans KN99α (serotype A, mating type MATα)
C. neoformans 1841 [7] = experiment: Antifungal activity assay (CFU on SAB agar); assay type: cell-based, Cryptococcus neoformans; details: treatment 3 h, 30 °C, mean ± SD, n = 4; for cell count C. neoformans 1841, 24 h: CFU counted after 24 h; for cell count C. neoformans 1841, 48 h: CFU counted after 48 h
C. neoformans 1841 [8] = experiment: Time-kill assay; assay type: cell-based, Cryptococcus neoformans; details: 2.5 μmol/L, 30°C, up to 24 h
Procedure: The kinetic effects of the antifungal activity were determined by diluting overnight cultures to 5 × 10^4 CFU/mL with 50% SAB in phosphate buffer. Aqueous peptide solutions (20 μL) were added to the cell suspension (80 μL) to give a final peptide concentration of 2.5 μmol/L. Samples were incubated at 30°C on an orbital shaker (750 rpm, Titramax 1,000, Heidolph Instruments GmbH & Co. KG) for 24 h. Before incubation (0 min) and after 45 min, 90 min, 3 h, 6 h, and 24 h incubation, aliquots (10 μL) of samples were taken and diluted with phosphate buffer (10 mmol/L, pH 7.5) to observe countable cell colonies. Aliquots (100 μL) of the diluted cell suspensions were plated on SAB agar plates. Plates were incubated at 30°C and colonies were counted after 24 h.

[9] = 1841 (serotype D, 24 h, pH 7.5)
[10] = 1841 (serotype D, 48 h, pH 7.5)
[11] = KN99α (serotype A, mating type MATα, 24 h)
[12] = KN99α (serotype A, mating type MATα, 48 h)
[13] = broth microdilution, 50% SAB in phosphate buffer, 30°C, read after 24 h, n = 6
[14] = broth microdilution, 50% SAB in phosphate buffer, 30°C, read after 48 h, n = 6

| Compound | colony formation on agar [2] | cell count C. neoformans H99, 24 h (C. neoformans H99; 0.25 µmol/L) | cell count C. neoformans H99, 48 h (C. neoformans H99; 0.25 µmol/L) | cell count C. neoformans H99, 24 h (C. neoformans H99; 2.5 µmol/L) | cell count C. neoformans H99, 48 h (C. neoformans H99; 2.5 µmol/L) | cell count C. neoformans H99, 24 h (C. neoformans H99; 25 µmol/L) | cell count C. neoformans H99, 48 h (C. neoformans H99; 25 µmol/L) | MIC (μmol/L) H99 24 h ([3]; H99 (serotype A, 24 h)) | MIC (μmol/L) H99 48 h ([3]; H99 (serotype A, 48 h)) | damaged cells in SEM (C. neoformans 1841 [4]) | cell count C. neoformans KN99α, 24 h (C. neoformans KN99α; 0.25 µmol/L) | cell count C. neoformans KN99α, 48 h (C. neoformans KN99α; 0.25 µmol/L) | cell count C. neoformans KN99α, 24 h (C. neoformans KN99α; 2.5 µmol/L) | cell count C. neoformans KN99α, 48 h (C. neoformans KN99α; 2.5 µmol/L) | cell count C. neoformans KN99α, 24 h (C. neoformans KN99α; 25 µmol/L) | cell count C. neoformans KN99α, 48 h (C. neoformans KN99α; 25 µmol/L) | MIC (μmol/L) 1841 24 h [5, 9] | MIC (μmol/L) 1841 48 h [5, 10] | MIC (μmol/L) KN99α 24 h [6, 11] | MIC (μmol/L) KN99α 48 h [6, 12] | other results |
| --- | --- | --- | --- | --- | --- | --- | --- | --- | --- | --- | --- | --- | --- | --- | --- | --- | --- | --- | --- | --- | --- |
| CC(C)C[C@H](NC(=O)[C@H](Cc1ccc(O)cc1)NC(=O)[C@@H]1CCCN1C(=O)[C@H](CCCNC(=N)N)NC(=O)[C@@H]1CCCN1C(=O)[C@H](CCCCN)NC(=O)[C@H](CC(=O)O)NC(=O)[C@@H]1CCCN1C(=O)[C@H](CCCNC(=N)N)NC(=O)C1(N)CCCCC1)C(=O)N1CCC[C@H]1C(=O)N[C@@H](CCCNC(=N)N)C(=O)N1CCC[C@H]1C(=O)N[C@@H](CCCNC(=N)N)C(=O)N1CCC[C@H]1C(=O)N1CCC[C@H]1C(=O)N[C@@H](CCCNC(=N)N)C(=O)N1CCC[C@H]1C(=O)N[C@H](C(=O)N[C@@H](CCCNC(=N)N)C(N)=O)C(C)C [Chex1Arg20] (H-[Ac6c]RPDKPRPYLPRPRPPRPVR-NH2; N-terminus assumed) | delayed colony formation | 1.4 ± 0.7 x 10^4 CFU/mL | 1.6 ± 0.8 x 10^4 CFU/mL | 1.5 ± 1.0 x 10^4 CFU/mL | 2.5 ± 0.8 x 10^4 CFU/mL | 0.0 ± 0.0 x 10^4 CFU/mL | 0.8 ± 0.2 x 10^4 CFU/mL | 1.6 µmol/L (≈ 3.96 µg/mL) | 1.6 to 3.2 µmol/L | only a small portion showed deep indentations | 2.7 ± 0.4 x 10^4 CFU/mL | 2.7 ± 0.4 x 10^4 CFU/mL | 1.0 ± 0.6 x 10^4 CFU/mL | 1.8 ± 1.2 x 10^4 CFU/mL | 0.5 ± 0.8 x 10^4 CFU/mL | 0.8 ± 0.9 x 10^4 CFU/mL | 1.6 µmol/L (≈ 3.96 µg/mL) | 3.2 µmol/L (≈ 7.92 µg/mL) | 1.6 µmol/L (≈ 3.96 µg/mL) | 3.2 µmol/L (≈ 7.92 µg/mL) | MIC [1]: 4 to 16 µg/mL; MIC (mg/L) H99 48 h ([3]; H99 (serotype A, 48 h)): 4 to 8 mg/L; cell count C. neoformans 1841, 24 h (C. neoformans 1841 [7]; 0.25 µmol/L): 2.7 ± 0.0 x 10^4 CFU/mL; cell count C. neoformans 1841, 48 h (C. neoformans 1841 [7]; 0.25 µmol/L): 2.8 ± 0.1 x 10^4 CFU/mL; cell count C. neoformans 1841, 24 h (C. neoformans 1841 [7]; 2.5 µmol/L): 0.0 ± 0.0 x 10^4 CFU/mL; cell count C. neoformans 1841, 48 h (C. neoformans 1841 [7]; 2.5 µmol/L): 0.5 ± 0.1 x 10^4 CFU/mL; cell count C. neoformans 1841, 24 h (C. neoformans 1841 [7]; 25 µmol/L): 0.0 ± 0.0 x 10^4 CFU/mL; cell count C. neoformans 1841, 48 h (C. neoformans 1841 [7]; 25 µmol/L): 0.0 ± 0.0 x 10^4 CFU/mL |
| gu-OIOIORPVYOPRPRPPHPRL-OH [Api795, optimized apidaecin analog] | delayed colony formation | 3.3 ± 0.3 x 10^4 CFU/mL | 3.6 ± 0.6 x 10^4 CFU/mL | 1.4 ± 0.4 x 10^4 CFU/mL | 2.0 ± 0.2 x 10^4 CFU/mL | 0.1 ± 0.0 x 10^4 CFU/mL | 0.5 ± 0.2 x 10^4 CFU/mL | – | – | – | 2.9 ± 0.3 x 10^4 CFU/mL | 2.9 ± 0.4 x 10^4 CFU/mL | 1.7 ± 0.7 x 10^4 CFU/mL | 1.9 ± 0.8 x 10^4 CFU/mL | 0.1 ± 0.1 x 10^4 CFU/mL | 0.4 ± 0.1 x 10^4 CFU/mL | – | – | – | – | MIC (μmol/L) H99 24 h [3, 13]: 3.2 µmol/L; MIC (μmol/L) H99 48 h [3, 14]: 3.2 µmol/L; time-dependent antifungal effect (C. neoformans 1841 [8]): delayed antifungal effect; MIC (μmol/L) 1841 24 h ([5]; broth microdilution, 50% SAB in phosphate buffer pH 7.5, 5 × 10^4 CFU/mL, 30°C, read after 24 h, mean of six replicates (n = 6)): 1.6 µmol/L; MIC (μmol/L) 1841 48 h ([5]; broth microdilution, 50% SAB in phosphate buffer pH 7.5, 5 × 10^4 CFU/mL, 30°C, read after 48 h, n = 6): 3.2 µmol/L; MIC (mg/L) KN99α 24 h [6, 13]: 4 to 8 mg/L; MIC (μmol/L) KN99α 24 h [6, 13]: 1.6 to 3.2 µmol/L; MIC (μmol/L) KN99α 48 h [6, 14]: 3.2 µmol/L; cell count C. neoformans 1841, 24 h (C. neoformans 1841 [7]; 0.25 µmol/L): 1.4 ± 0.6 x 10^4 CFU/mL; cell count C. neoformans 1841, 48 h (C. neoformans 1841 [7]; 0.25 µmol/L): 1.4 ± 0.6 x 10^4 CFU/mL; cell count C. neoformans 1841, 24 h (C. neoformans 1841 [7]; 2.5 µmol/L): 2.1 ± 0.1 x 10^4 CFU/mL; cell count C. neoformans 1841, 48 h (C. neoformans 1841 [7]; 2.5 µmol/L): 2.1 ± 0.1 x 10^4 CFU/mL; cell count C. neoformans 1841, 24 h (C. neoformans 1841 [7]; 25 µmol/L): 0.2 ± 0.0 x 10^4 CFU/mL; cell count C. neoformans 1841, 48 h (C. neoformans 1841 [7]; 25 µmol/L): 0.2 ± 0.0 x 10^4 CFU/mL |
| CC(C)C[C@H](NC(=O)[C@@H]1CCCN1C(=O)[C@@H]1CCCN1C(=O)[C@H](CCCNC(=N)N)NC(=O)[C@H](Cc1ccc(O)cc1)NC(=O)[C@@H]1CCCN1C(=O)[C@@H]1CCCN1C(=O)[C@H](CCCNC(=N)N)NC(=O)C1(NC(=O)[C@H](CCCNC(=N)N)NC(=O)[C@@H]2CCCN2C(=O)[C@H](CCCCN)NC(=O)[C@@H]2CCCN2C(=O)[C@H](CCCNC(=N)N)NC(=O)[C@@H]2CCCN2C(=O)[C@H](CCCNC(=N)N)NC(=O)[C@@H](NC(=O)[C@H](CCCNC(=N)N)NC(=O)[C@@H](N)CC(=O)O)C(C)C)CCCCC1)C(=O)N1CCC[C@H]1C(N)=O [Chex1Arg20 scr] (H-DRVRPRPKPR[Ac6c]RPPYRPPLP-NH2; N-terminus assumed) | – | – | – | – | – | – | – | 26 µmol/L (≈ 64.4 µg/mL) | 52 µmol/L (≈ 129 µg/mL) | slightly lower percentage of damaged cells than Chex1Arg20 | – | – | – | – | – | – | 13 to 26 µmol/L | 26 to 52 µmol/L | 26 µmol/L (≈ 64.4 µg/mL) | 52 µmol/L (≈ 129 µg/mL) | MIC (mg/L) 1841 24 h ([5]; 1841 (serotype D, 24 h)): 32 to 64 mg/L; MIC (mg/L) 1841 48 h ([5]; 1841 (serotype D, 48 h)): 64 to 128 mg/L |
